Measurements from patent publication US20190269705A1, “METHODS AND MATERIALS FOR TREATING GRAFT VERSUS HOST DISEASE” (Regents of the University of Minnesota, priority 2017, published 2019).
Entries after “also recorded” stand apart in the source; their conditions may differ.

Key:
[1] = tested on: stimulated CD4+ T cells; test: 13C-glucose tracing of stimulated CD4 T cells (LC-HRMS); format: cell-based, mouse; settings: 1 μM CB839, 13C-glucose, 24 hours
Method: ^13C-Glucose Activation: CD4 cells were activated on 5 μg/mL αCD3/CD28 for 3 days. At day 3, cells were pooled, washed 3× in PBS, and re-stimulated in presence of 1 μM CB839 or Vehicle (DMSO) and 11 mM ^13C glucose (Cambridge Isotope Labs, Cat #: CLM-1396-1). Cells were incubated for 24 hours at 37° C., then scraped and combined in triplicate. Cells were rinsed with 0.9% saline and metabolites were extracted in methanol. Metabolites measured by LC-High-Resolution Mass Spectrometer (LC-HRMS) using a Q-exactive machine. The time-dependent glucose labeling pattern was modeled as with the following equation: […]
^13C Tracing. To measure 13C-Glucose tracing in T cell activation, CD4 cells were stimulated on 5 μg/mL anti-CD3/CD28 for 3 days. At day 3, cells were pooled, washed 3× in PBS, and re-stimulated in presence of 1 uM CB839 or Vehicle (DMSO) and 11 mM 13C glucose (Cambridge Isotope Labs, Cat #: CLM-1396-1). Cells were incubated for 24 hours at 37 °C, then scraped and combined in triplicate. Cells were rinsed with 0.9% saline and metabolites were extracted in methanol. Metabolites measured by LC High-Resolution Mass Spectrometer (LC-HRMS) using a Q-Exactive machine as previously described(Liberti et al., 2017). The time-dependent glucose labeling pattern was modeled as with the following equation: […]

[2] = tested on: Th17 cells; test: RNA-Seq and gene set enrichment analysis, Th17; format: cell-based, mouse
Method: ATAC-Seq: Crude nuclei pellets were isolated as described elsewhere (see, e.g., Buenrostro et al., 2013 Nat Meth. 10(12):1213-1218) with modifications. Briefly, naïve CD4 T cells were skewed to Th1 and Th17 subsets in vitro with vehicle or in the presence of 500 nM CB839. At Day 5, T cells were re-isolated for CD4+ cells using Miltenyi CD4+ negative selection kit (Cat #: 130-104-454). 1×10^5 cells were removed for nuclei extraction in ATAC-Seq lysing buffer. Cells were exposed to Tn5+ adaptor proteins from Nextera DNA for 30 min at 37° C. and immediately placed on ice. Transposed eluate was amplified via PCR using Nextera DNA preparation kit (Illumina, Cat #: FC-121-1030), NEBNext High-fidelity 2× PCR mix (New England Labs, Cat #: M0541), and multiplexed (Illumina, Cat #: FC-121-1011). Samples were purified using Zymo DNA cleanup kit (Cat #: D4011). QC of samples was run on bioanalyzer before being sent for sequencing. RNA-Seq: Th1 and Th17 cells skewed with or without CB839 were isolated as previously described and total RNA extracted (Qiagen RNEasy Mini kit, Cat #: 74104). RNA was sent to VANTAGE core at Vanderbilt University and sequenced on HiSeq 2500. n=3 for each sample was analyzed. Samples were analyzed using the R program DESeq2. GSEA was performed using MSigDB.
Th1 and Th17 cells were skewed with or without CB839 over 5 days and total RNA extracted for RNAseq (Cat #: 74104). RNA was sent to VANderbilt Technologies for Advanced GEnomics (VANTAGE) core at Vanderbilt University. Libraries were prepared using 50 ng of total RNA using the NEBNext Ultra RNA Library Kit for Illumina (Cat #E7530) and sequenced on HiSeq3000 at 75 bp paired-end. Each sample was analyzed in triplicate. Sequencing reads were aligned against the Mouse GENCODE genome, Version M14 (Jan. 2017 freeze, GRCm38, Ensembl 89) using the Spliced Transcripts Alignment to a Reference (STAR) software (ref: 26187010 and 23104886). Reads were preprocessed and index using SAMtools (ref: 19505943). Mapped reads were assigned to gene features and quantified using featureCounts (ref: 24227677). Normalization and differential expression was performed using DESeq2 (Love et al., 2014). Skewed lymphocytes with and without CB839 were compared in both Th1 and Th17 groups. […] The top 200 most differentially expressed genes were used for unsupervised hierarchical cluster analysis and visualized using heatmap representations.

[3] = tested on: Treg cells; test: CD4 T cells in Treg skewing conditions, flow cytometry; settings: 5 days, CB839 vs vehicle
[4] = Th17 Cells: Decreased Pathways, HALLMARK_CHOLESTEROL_HOMEOSTASIS
[5] = Th17 Cells: Decreased Pathways, HALLMARK_E2F_TARGETS
[6] = Th17 Cells: Decreased Pathways, HALLMARK_G2M_CHECKPOINT
[7] = Th17 Cells: Decreased Pathways, HALLMARK_GLYCOLYSIS
[8] = Th17 Cells: Decreased Pathways, HALLMARK_IL2_STAT5_SIGNALING
[9] = Th17 Cells: Decreased Pathways, HALLMARK_MTORC1_SIGNALING
[10] = Th17 Cells: Decreased Pathways, HALLMARK_MYC_TARGETS_V1
[11] = Th17 Cells: Decreased Pathways, HALLMARK_MYC_TARGETS_V2
[12] = Th17 Cells: Decreased Pathways, HALLMARK_TNFA_SIGNALING_VIA_NFKB
[13] = Th17 Cells: Decreased Pathways, HALLMARK_UNFOLDED_PROTEIN_RESPONSE
[14] = Th17 Cells: Increased Pathways, HALLMARK_APICAL_JUNCTION
[15] = Th17 Cells: Increased Pathways, HALLMARK_COMPLEMENT
[16] = Th17 Cells: Increased Pathways, HALLMARK_EPITHELIAL_MESENCHYMAL_TRANSITION
[17] = Th17 Cells: Increased Pathways, HALLMARK_HYPOXIA
[18] = Th17 Cells: Increased Pathways, HALLMARK_INFLAMMATORY_RESPONSE
[19] = Th17 Cells: Increased Pathways, HALLMARK_INTERFERON_GAMMA_RESPONSE
[20] = Th17 Cells: Increased Pathways, HALLMARK_MYOGENESIS
[21] = Th17 Cells: Increased Pathways, HALLMARK_P53_PATHWAY
[22] = Th17 Cells: Increased Pathways, HALLMARK_TNFA_SIGNALING_VIA_NFKB
[23] = Th17 Cells: Increased Pathways, HALLMARK_XENOBIOTIC_METABOLISM

With `O=C(Cc1cccc(OC(F)(F)F)c1)Nc1ccc(CCCCc2nnc(NC(=O)Cc3ccccn3)s2)nn1` [CB839] the N-carbamoyl-aspartate [1] was “decreased”, the “TCA intermediates fractional labeling with glucose-derived 13C” value [1] was “increased fractional labeling” and the “TCA intermediates overall abundance” value [1] was “reduced in overall abundance”. The aspartate levels [1] was “decreased significantly”, the “glucose-derived 13C in glutamate and aspartate” value [1] was “increased in both glutamate and aspartate” and the glutamate [1] was “decreased glutamate”. The glycine abundance [1] was “unchanged”, the glycolytic intermediates abundance [1] was “more abundant” and the intracellular glutamine [1] was “increased intracellular glutamine”. The “lactate levels and 13C-labeling” value [1] was “unchanged”, the pyruvate abundance [1] was “decreased” and the “serine and alanine abundance” value [1] was “also decreased”. For the same compound, the “compensation by GLS2 at the RNA level” value ([2]; Th17, CB839-treated) was “No compensation by GLS2 at the RNA level”, the “direction of the 200 genes with the most altered expression” value ([2]; Th17, CB839 vs vehicle) was “more of the most changed genes were downregulated; also recorded: more of these genes were downregulated” and the “gene set enrichment: cell cycle, mTORC1, Myc, IL2 signaling pathways” value ([2]; Th17, CB839 vs vehicle) was “downregulated”. For the same compound, the “# Genes in Overlap (k)” value [2, 4] was 25, the k/K [2, 4] was 0.3378 and the “# Genes in Overlap (k)” value [2, 5] was 107. The k/K [2, 5] was 0.535, the “# Genes in Overlap (k)” value [2, 6] was 94 and the k/K [2, 6] was 0.47. For the same compound, the “# Genes in Overlap (k)” value [2, 7] was 31, the k/K [2, 7] was 0.155 and the “# Genes in Overlap (k)” value [2, 8] was 39. The k/K [2, 8] was 0.195, the “# Genes in Overlap (k)” value [2, 9] was 70 and the k/K [2, 9] was 0.35. For the same compound, the “# Genes in Overlap (k)” value [2, 10] was 75, the k/K [2, 10] was 0.375 and the “# Genes in Overlap (k)” value [2, 11] was 31. The k/K [2, 11] was 0.5345, the “# Genes in Overlap (k)” value [2, 12] was 34 and the k/K [2, 12] was 0.17. For the same compound, the “# Genes in Overlap (k)” value [2, 13] was 29, the k/K [2, 13] was 0.2566 and the “# Genes in Overlap (k)” value [2, 14] was 19. For the same compound, the k/K [2, 14] was 0.095, the “# Genes in Overlap (k)” value [2, 15] was 17 and the k/K [2, 15] was 0.085. The “# Genes in Overlap (k)” value [2, 16] was 16, the k/K [2, 16] was 0.08 and the “# Genes in Overlap (k)” value [2, 17] was 15. The k/K [2, 17] was 0.075, the “# Genes in Overlap (k)” value [2, 18] was 16 and the k/K [2, 18] was 0.08. The “# Genes in Overlap (k)” value [2, 19] was 25, the k/K [2, 19] was 0.125 and the “# Genes in Overlap (k)” value [2, 20] was 18. For the same compound, the k/K [2, 20] was 0.09, the “# Genes in Overlap (k)” value [2, 21] was 19 and the k/K [2, 21] was 0.095. For the same compound, the “# Genes in Overlap (k)” value [2, 22] was 17, the k/K [2, 22] was 0.085 and the “# Genes in Overlap (k)” value [2, 23] was 17. The k/K [2, 23] was 0.085 and the Treg differentiation [3] was “unchanged”.
